Reference: US11278550B2, “Compositions and methods for the treatment of Prader-Willi syndrome” (Duke University, priority 2016, dated 2022)
Entries after “also recorded” stand apart in the source; their conditions may differ. Read-outs that look alike come from different tables or passages of the source.

What was measured:
maternal Snrpn-EGFP MEFs = experiment: High content screening / concentration response of Snrpn-EGFP unsilencing; assay type: cell-based, mouse; details: for activation of S-EGFP: mS-EGFP/p+ MEFs; for EC50: read-out: half-maximal effective concentration (EC50), Snrpn-EGFP unsilencing
Method: High content screenings of small molecules were performed as described in Huang, et al. Nature 481, 185-189 (2012). HCS comprises a 384-well high-content screen using primary mouse embryonic fibroblasts (MEFs) from m^S-EGFP/p^+, and searched for drug-like molecules that could unsilence the maternal S-EFGP allele. […] To perform the screen, primary MEFs were isolated from E12.5-14.5 embryos of m^S-EGFP/p^+ and cultured for 7 days in Dulbecco's modified Eagle's media supplemented with 10% fetal bovine serum, 100 Units/mL penicillin and 100 μg/mL streptomycin, at 37° C. and 5% CO2. One day before treatment with small molecules, 5,000 cells per well were plated onto 384-well plates. The cells were then treated with compounds (10 μM for 72 hours) from multiple small molecule libraries (FIG. 1f and FIG. 2). In total, 9,157 small molecules were screened in quadruplicate, normalizing values to vehicle-treatment (0.2% DMSO) (Table 1). The unsilencing of Snrpn-EGFP was determined three days after drug treatment. The immunofluorescence-processed fibroblasts were imaged for Hoechst and Alexa Fluor 488 fluorescence using a BD Pathway 855 high content imaging microscope. Antibody-enhanced Snrpn-EGPF fluorescence intensity was determined in drug-treated cells individually and normalized to cells treated with vehicle control. In order to identify potentially active compounds, an arbitrary cutoff of 125% was used where 100% indicates basal fluorescence in the vehicle-treated MEFs. Analysis was performed using Cell Profiler with custom macro and algorithms. Potential active drugs were defined as the increase in drug-mediated EGFP fluorescence consistently observed across quadruplicate wells and minimal or no cytotoxicity measured by Hoechst-stained nuclear structure (and the changes in total number of cells). After initial validation of all potential active drugs (e.g., to determine whether active compounds show inherent fluorescence, the wild-type fibroblasts were also treated), only effective hit compounds further validated in dose-response tests to determine relative efficacy (Emax) and potency (EC50). The dose-response results were analyzed by using Graphpad Prism (Graphpad Software). The calculated EC50 values (potencies) and estimated Emax (efficacy, Y-value top plateau) enabled comparative analyses of the relative potency and efficacy of the identified compounds.
Three days after drug treatment, the cells were fixed at 4% paraformaldehyde at room temperature for 10 min, followed by rinsing with 1× PBS. The cells were permeabilized with 0.5% Triton X-100 in 1× PBS at room temperature for 10 min, followed by blocking with 5% normal goat serum in 0.1% Triton X-100 in 1× PBS at room temperature for 30 minutes. Primary rabbit anti-GFP antibody (1:1000, Novus Biologicals cat. no. NB100-1770) was incubated at 4° C. overnight. The next day, the cells were rinsed with 1× PBS and incubated with goat anti-rabbit Alexa Fluor 488 (Invitrogen cat. no. A-11008) and Hoechst at room temperature. One hour after incubation, the cells were rinsed with 1× PBS and imaged for Hoechst and Alexa Fluor 488 fluorescence using a BD Pathway 855 high content imaging microscope.
It is not feasible to design a screen for noncoding RNA. Alternatively, SNRPN/Snprn is paternally expressed but maternally silenced in all human and mouse tissues. The allele-specific expression of human SNRPN is regulated by the PWS-IC, which also controls the expression of host transcripts for SnoRNAs, including the SNORD116 cluster between SNRPN and UBE3A. see Le Meur, E. et al., Dev. Biol. 286, 587-600 (2005). Thus, the Snrpn-EGFP fusion protein (hereafter S-EGFP) was used as a marker for high content screening (HCS). It was determined that small molecules that can unsilence S-EGFP would also be effective in reactivating the host transcript of SNORD116. […]

human PWS fibroblasts = experiment: RT-PCR of 15q11-q13 genes in human PWS fibroblasts; assay type: cell-based; details: for SNORD116 and its putative host transcript (116HG): 4 μM, 72 hours
Method: (§1) For testing long lasting drug effects, the 6 week-old m^S-EGFP/p^+ mice were treated daily by i.p. injection for seven consecutive days.
(§2) For reverse-transcription PCR (RT-PCR) and quantitative real time RT-PCR (qRT-PCR), first total RNA was extracted from the fibroblasts and/or collected tissues (liver and brain) using Direct-zol RNA Miniprep kit (Zymo Research cat. no. R2070). 2 μg of total RNA was directly used for single strand cDNA synthesis with Superscript III reverse transcriptase (Invitrogen cat. no. 18080-093) according to the manufacturer's protocols. The conditions for RT-PCR were 95° C./5 min, 35-40 cycles of 95° C./30 sec, 56-60° C./60 sec, 72° C./60 sec. Quantification of target gene expression was performed in a LightCycler480 instrument (Roche) using SsoAdvanced Universal SYBR green Supermix (Biorad cat. no. 172-5271) according to the manufacturer's instructions. See Table 4 for primer sequences and conditions used for experiments for RT-PCR, qRT-PCR, bisulfite genomic sequencing, ChIP-qPCR, and chromatin accessibility assay.
FIG. 4a represents a schematic of genomic organization at the human chromosome 15q11-q13 region imprinting center. Because imprinting of SNPRN is known to be ubiquitous, the G9a-inhibitor effect on its activation is expected to be representative of all tissues and cell types.

H3K9me2 = details: cited from earlier work
m+/pΔS-U mice = experiment: RNA and protein expression in PWS mouse tissues; assay type: in vivo
Method: as §1
Western blot analysis was performed as previously described by Wang, et al., Molecular Autism 5, 30 (2014). Briefly, total protein was extracted from collected tissues (liver and brain) using modified RIPA buffer (1× PBS, 1% Triton X-100, 0.1% SDS, 2 mM EDTA, and protease inhibitors). SDS-PAGE resolved 25 μg of total proteins and they were transferred to polyvinylidene difluoride (PVDF) membranes. The PVDF membranes were blocked with BLOTTO (5% skim milk and 0.1% Tween-20 in 1× TBS buffer), and incubated with primary target antibodies, rabbit anti-Snrpn (Protein Tech, cat. no. 11070-1-AP) at 1:400, and rabbit anti-Ube3a (Bethyl Lab, cat. no. A300-352A-T) at 1:1,000 working concentration in BLOTTO at 4° C. overnight. The next day, following incubation with horseradish peroxidase-conjugated secondary antibodies, the membranes were incubated with a Pierce chemiluminescent substrate and exposed to X-ray film or imaged by AI600 (GE Healthcare Life Science).
as §2

Compound | activation of S-EGFP (maternal Snrpn-EGFP MEFs) | EC50 (maternal Snrpn-EGFP MEFs; maternal Snrpn-EGFP MEFs, 72 hours) [nM] | SNORD116 and its putative host transcript (116HG) (human PWS fibroblasts) | activation of SNRPN and SNORD116 transcripts (human PWS fibroblasts; 1-4 μM) | reduction of the levels of H3K9me2 (H3K9me2; 250 nM, variety of cell lines) | EC50 (maternal Snrpn-EGFP MEFs; Mus musculus, 72 h) [nM] | level of Ube3a-AS RNA (m+/pΔS-U mice; brain) | expression of Snrpn and Snord116 (m+/pΔS-U mice; brain and liver, around P14, RT-PCR and qRT-PCR) | Ube3a protein level (m+/pΔS-U mice; whole brain and cerebellum) | potency for H3K9me2 mark (H3K9me2; several cell lines)
COc1cc2c(NC3CCN(C(C)C)CC3)nc(C3CCCCC3)nc2cc1OCCCN1CCCC1 [UNC0638] | active | 1600 | effective | effectively activated | 60-80% | – | – | – | – | –
COc1cc2c(NC3CCN(C(C)C)CC3)nc(N3CCC(F)(F)CC3)nc2cc1OCCCN1CCCC1 [UNC0642] | active | – | effective | – | – | 2700 | not affected | readily detectable | not changed; also recorded: not affected | high potency
